# Laboratory results from US6218384A, “3-Oxo-pyrido(1,2-a)benzimidazole-4-carboxyl and 4-oxo-azepino(1,2-a)benzimidazole-5-carboxyl derivatives useful in treating central nervous system disorders” (Ortho-McNeil Pharmaceutical, Inc., priority 1997, dated 2001).
# pIC50: −log10 of the molar value.
# Columns and labels:
# [1] = target: benzodiazepine site of the GABA-A receptor; experiment: Benzodiazepine Receptor Binding Assay (inhibition of 3H-flunitrazepam binding); details: Table 1; ca. 3 nM 3H-flunitrazepam, 25° C., 10-20 min; >10,000 = not active
# [2] = Suppression of anxiety (punished licking, conflict test) in the adult male rat; format: in vivo, male rats; details: Table 1, ip, minimum effective dose, >10 = active dose not determined; for minimal effective dose: read-out: Conflict (ip) MED
# Description: The anxiolytic activity of selected compounds of the invention was assessed by determining their ability to release (disinhibit) behavior that had been suppressed by punishment (Vogel, J. R. et al. Psychopharmacology 1971, 21, 1). Male rats were deprived of water for 48 hours and were deprived of food for 24 hours prior to testing. After the first 24 hours of water deprivation, they were placed in the conflict chamber for a training period; wherein, they were allowed 200 unpunished licks from a bottle containing tap water. The experiment was run the next day. At the expected time of peak activity, the animals were placed in the chamber and allowed access to tap water. […] Their first lick initiates a 3-min test session. Subsequently,every 20th lick was punished by a 0.2-s shock delivered via the stainless-steel drinking-tube. Vehicle-treated control animals generally were willing to accept a median number of 3 to 8 shocks per test session. […] The Wilcoxon rank-sum test (Mann-WhitneyU-test) was used to test for an increase (p<0.05, 1-tailed) in the median number of shocks in drug-treated groups, compared to a concurrently run vehicle-treated group. The biological assay is considered to be valid if the effects of a known anxiolytic (positive control) are detected, within the same experiment. A compound was considered active if there is a significant difference in the median number of shocks tolerated between the drug-treated group and the control group. The MED was defined as the minimum dose of the drug-treatment as analyzed using the Wilcoxon rank-sum test (SAS; Statistical Analysis System, version 5.16). If the MED value is greater than 10, an active dose of the compound being tested had not been determined.
# [3] = Suppression of metrazol-induced convulsions; format: in vivo, male CD1 mice; details: Table 1, ip, mice, clonic convulsions after sc CD90 metrazol, >30 = active dose not determined; for Metrazol (ip) ED50: 30 min; for ED50: Mus musculus, 0.5 h, read-out: Metrazol (ip) ED50
# Description: Selected compounds of the invention were tested for their ability to reduce metrazol-induced convulsions in mice (Swinyard, E. A. J. Am. Pharm Assoc. 1949, 38, 201). Male CD1 mice, were fasted at least 16 hours, were divided into equal groups and test compounds or vehicle were administered parenterally. Water was not withheld except during the period of observations. At the time of suspected peak activity, anti-pentylenetetrazol (anti-metrazol) activity was evaluated by the subcutaneous administration of the CD90 dose of metrazol (the dose of metrazol was determined from the dose-response curve producing clonic convulsions in 90% of animals that received the corresponding vehicle for this experiment). Metrazol was dissolved in 0.9% sodium chloride solution, and its dose volume was 10 ml/kg. Animals were housed individually for observation of clonic convulsions, tonic convulsions and death for a period of 30 min. Test compounds that blocked the clonic seizure component of the convulsion in at least 50% of the animals were considered active. The biological assay was considered to be valid if the effects of a known anticonvulsant (positive control) were detected, within the same experiment. Activity was reported as percent reduction of clonic convulsions from the vehicle group. The ED50 values of active compounds were calculated by the method of probits (Finney, D. J. 1971. Probit Analysis. London: Cambridge University Press) and are listed in Tables 1 to 5.
Compound,pIC50 [1],Conflict (ip) MED [2] [mg/kg],Metrazol (ip) ED50 [3] [mg/kg],minimal effective dose [2] [mg/kg],ED50 [3] [mg/kg]
"1,2-Dihydro-3-hydroxy-N-phenylpyrido(1,2-a)benzimidazole-4-thiocarboxamide [CP 117]",7.34,10,> 30,–,–
"1,2-Dihydro-5-ethyl-3-oxo-N-(2-fluorophenyl)-pyrido(1,2-a)benzimidazole-4-carboxamide [CP 123]",6.21,1,5,–,–
O=C1CCN2C(=C1C(=O)NCCc1ccccc1)Nc1ccccc12 [compound 2],6.55,–,–,> 10,10 to 30
O=C1CCN2C(=C1C(=O)Nc1cccc(Cl)c1)Nc1ccccc12 [compound 6],6.92,–,–,> 10,> 30
COc1ccc(NC(=O)C2=C3Nc4ccccc4N3CCC2=O)cc1OC [compound 8],7.49,–,–,> 10,> 30
COc1ccc2c(c1)NC1=C(C(=O)Nc3ccccc3)C(=O)CCN12 [compound 12],7.40,–,–,> 10,3
O=C1CCN2C(=C1C(=O)Nc1c(Cl)cccc1Cl)Nc1ccccc12 [compound 14],6.49,–,–,> 10,30
O=C1CCN2C(=C1C(=O)Nc1cccc(C(F)(F)F)c1)Nc1ccccc12 [compound 15],6.52,–,–,> 10,> 10
O=C1CCN2C(=C1C(=O)Nc1ccccc1)Nc1cc(C(F)(F)F)ccc12 [compound 16],6.02,–,–,–,–
Nc1ccc(NC(=O)C2=C3Nc4ccccc4N3CCC2=O)cc1 [compound 18],4.89,–,–,> 10,3
O=C1CCN2C(=C1C(=O)Nc1ccccc1F)Nc1ccccc12 [compound 20],8.77,–,–,1,0.1
COc1cccc(NC(=O)C2=C3Nc4ccccc4N3CCC2=O)c1 [compound 21],7.59,–,–,5,0.3
O=C1CCN2C(=C1C(=O)Nc1ccccn1)Nc1ccccc12 [compound 22],7.23,–,–,10,10
CSc1ccc(NC(=O)C2=C3Nc4ccccc4N3CCC2=O)cc1 [compound 23],6.40,–,–,> 10,10
CN(C)c1ccc(NC(=O)C2=C3Nc4ccccc4N3CCC2=O)cc1 [compound 24],6.57,–,–,3,3
O=C1CCN2C(=C1C(=O)Nc1ccccc1Cl)Nc1ccccc12 [compound 25],7.92,–,–,10,1
COc1ccccc1NC(=O)C1=C2Nc3ccccc3N2CCC1=O [compound 26],6.00,–,–,> 10,> 10
CCOC(=O)c1ccc(NC(=O)C2=C3Nc4ccccc4N3CCC2=O)cc1 [compound 27],< 5.00,–,–,< 10,> 30
O=C1CCN2C(=C1C(=O)Nc1ccc(C(=O)O)cc1)Nc1ccccc12 [compound 28],< 5.00,–,–,10,> 30
NC(=O)C1=C2Nc3ccccc3N2CCC1=O [compound 29],5.62,–,–,10,> 3
O=C1CCN2C(=C1C(=O)Nc1ccc3[nH]ccc3c1)Nc1ccccc12 [compound 30],6.28,–,–,> 10,> 30
Cc1ccccc1NC(=O)C1=C2Nc3ccccc3N2CCC1=O [compound 31],6.64,–,–,10,> 30
O=C1CCN2C(=C1C(=O)NCc1ccccc1)Nc1ccccc12 [compound 32],7.42,–,–,> 10,> 30
